# From patent publication US6703485B2, “Brain and heart cyclic nucleotide gated ion channel compounds and uses thereof” (The Trustees of Columbia University in the City of New York, priority 1997, dated 2004)
# Where “and” joins values, the source holds several entries; their conditions need not be identical. Equal entries are not always repeated.
# Key:
# mBCNG-1 channel = biological target: T1, mBCNG-1 channel (Mus musculus, UniProt O88704); format: biochemical
# T1 construct: expressed in transfected cells; host or cells: Xenopus oocytes injected with cRNA (pSD64TR vector, SP6 transcript); cell-free inside-out and outside-out patches
# [1] = biological target: T2, bovine photoreceptor CNG channels (Bos taurus, UniProt Q00194); details: Kramer and Tibbs, 1996; cited from earlier work
# T2 sequence (Q00194 1-690): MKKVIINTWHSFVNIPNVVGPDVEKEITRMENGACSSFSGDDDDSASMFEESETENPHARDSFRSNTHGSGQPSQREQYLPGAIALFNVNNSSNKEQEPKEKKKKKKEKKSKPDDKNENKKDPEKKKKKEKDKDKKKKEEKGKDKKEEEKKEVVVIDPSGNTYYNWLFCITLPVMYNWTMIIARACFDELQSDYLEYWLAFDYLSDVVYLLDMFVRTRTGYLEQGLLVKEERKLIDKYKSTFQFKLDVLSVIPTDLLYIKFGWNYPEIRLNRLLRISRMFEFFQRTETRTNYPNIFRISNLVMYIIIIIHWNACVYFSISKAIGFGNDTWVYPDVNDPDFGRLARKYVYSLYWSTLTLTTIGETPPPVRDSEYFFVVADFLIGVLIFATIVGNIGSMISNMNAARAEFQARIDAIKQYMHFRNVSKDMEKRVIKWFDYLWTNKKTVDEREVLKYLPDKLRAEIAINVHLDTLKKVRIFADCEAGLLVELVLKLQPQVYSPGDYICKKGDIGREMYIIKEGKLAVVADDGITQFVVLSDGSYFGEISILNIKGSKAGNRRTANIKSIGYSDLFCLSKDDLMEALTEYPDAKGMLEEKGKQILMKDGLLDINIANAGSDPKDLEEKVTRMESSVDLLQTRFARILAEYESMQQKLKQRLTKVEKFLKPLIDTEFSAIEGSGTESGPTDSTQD
# Pacemaker channel = details: myocardial ischemia, Schlack et al., 1998; cited from earlier work
# Ih in sensory neurons = details: Ingram and Williams; cited from earlier work
# [2] = test system: Ih in hippocampal neurons; details: Pedarzani and Storm, 1995; cited from earlier work
# If in sino-atrial node = details: DiFrancesco and Tortora, 1991; cited from earlier work
# T1 sequence (O88704 whole entry): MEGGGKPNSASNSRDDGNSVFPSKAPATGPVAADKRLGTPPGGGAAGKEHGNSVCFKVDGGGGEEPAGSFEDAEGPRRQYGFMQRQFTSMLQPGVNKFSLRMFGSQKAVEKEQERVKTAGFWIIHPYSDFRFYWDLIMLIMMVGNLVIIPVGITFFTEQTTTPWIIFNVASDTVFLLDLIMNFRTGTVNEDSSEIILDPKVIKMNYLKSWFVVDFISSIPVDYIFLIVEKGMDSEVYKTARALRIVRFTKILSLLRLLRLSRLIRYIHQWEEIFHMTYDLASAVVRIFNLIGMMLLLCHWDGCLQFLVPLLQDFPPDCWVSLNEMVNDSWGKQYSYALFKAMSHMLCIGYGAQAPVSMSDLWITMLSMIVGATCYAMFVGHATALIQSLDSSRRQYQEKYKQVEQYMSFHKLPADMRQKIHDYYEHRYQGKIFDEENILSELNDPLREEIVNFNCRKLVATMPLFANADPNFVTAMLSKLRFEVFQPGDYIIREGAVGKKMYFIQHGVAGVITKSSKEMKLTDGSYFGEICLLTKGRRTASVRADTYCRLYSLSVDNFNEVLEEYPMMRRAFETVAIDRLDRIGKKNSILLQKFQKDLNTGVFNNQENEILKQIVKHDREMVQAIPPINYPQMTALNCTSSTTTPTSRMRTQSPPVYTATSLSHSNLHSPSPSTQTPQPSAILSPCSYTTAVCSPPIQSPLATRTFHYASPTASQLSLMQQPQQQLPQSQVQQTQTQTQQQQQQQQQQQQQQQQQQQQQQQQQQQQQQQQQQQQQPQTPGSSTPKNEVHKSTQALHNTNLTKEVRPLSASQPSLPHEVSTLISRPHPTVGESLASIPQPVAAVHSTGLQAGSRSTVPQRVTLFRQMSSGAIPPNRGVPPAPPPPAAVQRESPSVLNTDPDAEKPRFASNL
structure (smiles),measurement,setting,value
[Ba+2] [Ba],mean percent inhibition of mBCNG-1 current,"mBCNG-1 channel; 1 mM Ba in external solution, outside-out patch, n=3",0±5%
Nc1nc2c(ncn2[C@@H]2O[C@@H]3COP(O)(=S)O[C@H]3[C@H]2O)c(=O)[nH]1 (stereo partly shown) [Sp-cGMPS],Effect on channel opening,[1],agonist
CCN(c1ccccc1)c1cc(=NC)n(C)c(C)n1.Cl [ZD 7288],Effect on infarct size,Pacemaker channel,reduce infarct size
Nc1ncnc2c1ncn2[C@@H]1O[C@@H]2COP(=O)(O)O[C@H]2[C@H]1O [cAMP],cAMP-dependent shift of Ih,Ih in sensory neurons,4-6 mV
same,cAMP-dependent shift of Ih,[2],2-3 mV
same,cAMP-dependent shift of If,If in sino-atrial node,10 mV
[Cl-].[Cs+] [Cs],% inhibition of mBCNG-1 current,mBCNG-1 channel,92.4±2.5%
same,Hill coefficient for inhibition of mBCNG-1 current by Cs,mBCNG-1 channel,~1 and 1.08
same,IC50,mBCNG-1 channel; read-out: IC50 for inhibition of mBCNG-1 current by Cs,~200 µM and 201 µM
Nc1nc2c(ncn2[C@@H]2O[C@@H]3COP(O)(=S)O[C@H]3[C@H]2O)c(=O)[nH]1 (stereo partly shown) [Rp-cGMPS],Effect on channel opening,[1],antagonist of channel opening
